Data on four compounds can be found in PMC5575474, “Structure‐Enabled Discovery of a Stapled Peptide Inhibitor to Target the Oncogenic Transcriptional Repressor TLE1” (Chemistry (Weinheim an Der Bergstrasse, Germany), 2017).

The target of one test is TLE1 WDR domain. The note with it: cited from earlier work. From the text: As discussed in more detail below, the bioactive conformation of this peptide is characterised by a compactly folded core formed by the central three amino acids. This compact core engages in extensive interactions with the WDR1 domain and positions key amino acid side chains such that they can form add ...

Test [1] has as its target T1, human TLE1 443-770 (TLE1 WD40 domain) (Homo sapiens, UniProt Q04724).
T1 construct: the TLE1 WD40 domain (TLE1 residues 443–770); His6 (N, cleaved yes); made in house; host or cells: Sf9 insect cells (baculovirus, pFastBacHTb)
The test can be described thus: Isothermal titration calorimetry (ITC), peptide–TLE1 binding. The note with it: one-site independent binding model; TLE1 30 μM, peptide 350 μM; 25 °C, 50 mM Hepes pH7.5, 250 mM NaCl; mean ± SD, n = 2 (Table S1).

The target in test [2] is T1, human TLE1 443-770 (TLE1 WD40 domain). Put plainly: Thermal shift assay (TSA, ΔTm). It counts as binding. The note with it: 6 μM human TLE1 443-770, 25 mM Tris pH7.5, 125 mM NaCl, 1 mM DTT, 0.0002% Tween20, 3x SYPRO Orange, 10 °C to 95 °C, 0.5 °/min, mean of triplicate. The procedure: (§1) We next investigated the binding of this macrocycle, as well as acyclic MWRPW and FWRPW peptides, to TLE1. We used two orthogonal binding assays, the thermal shift assay10 and isothermal titration calorimetry (ITC),11 to test binding of 18 and the linear peptides to the TLE1 WD40 domain (TLE1 residues 443–770).
Figure 2 ΔT m plot of peptide–hTLE1 443–770 interactions in thermal shift experiments. All measurements were carried out in triplicate and the points are reported as mean+standard deviation (SD). […]
(§2) Cloning, Expression and Purification of humanTLE1 443- 770.
(§3) The construct encoding the sequence for human TLE1 443- 770 was generated ac c or ding Laurence Pearl’s laboratory procedure. Brief ly, the C-terminal region of human TLE1 (GenBank accession number M99435) encoding amino acids 443– 770 was PCR amplif ied and cloned into pFastBacHTb (GIBCO) in-frame with the N-terminal His6 tag sequence.
(§4) Starting from this construct we generated recombinant baculovirus using the Bac-to-Bac® Baculovirus Expression System (Thermo Fisher Scientif ic). For protein production, Sf9 insect cells were grown in sf -900 II SFM media (Thermo Fisher Scientific) to a cell density of around 2 × 10^6 cells per milliliter and inf ected with 20 μL of virus per 107cells. Inf ected cell cultures were harvested 3 days post-inf ection.
(§5) Cell pellets were resuspended in 6 volumes of lysis buffer (50 mM Tris pH 7.5, 500 mM NaCl, 1 mM MgCl) containing 1× complete EDTA-free protease inhibitors and 25 U/mL benzonase nuclease. The resuspended cells were lysed by sonication. Following […]
(§6) centrifugation, the supernatant was purified over 2x HiTrap talon crude columns (Cobalt - IMAC, GE). Columns were washed with 10m M Imidazole and then the protein was eluted in […]
(§7) The Talon eluate was incubated overnight at 4 °C with TEV protease to cleave the 6xHis tag and then re- loaded on talon column: the unbound wash contains the cleaved hTLE1 443- […]
(§8) The protein was subsequently purif ied over a Superdex 75 16/60 column that was equilibrated in 50 mM Hepes pH 7.5 + 250 mM naCl + 1 mM TCEP.
(§9) Selected f ractions were pooled, concentrated to 8 mg/mL and stored at - 80 °C. The protein was stable in these conditions f or up to three months.
(§10) Protein concentration was measured using an ND-1000 UV spectrophotometer (Nanodrop Technologies Inc., DE., USA). […]
1-2 days at 20 ◦C. Some crystals were transf erred to hanging drop (vapour diffusion) plates with the wells containing precipitant solution (PEG 8000 (22%), 100mM Na cacodylate, 100 mM Ca(OAc)2) and the drops containing the same precipitant solution supplemented with 1.0 or 2.5 mM peptide and a resultant final DMSO concentration of 1.0% or 2.5%, respectively. These crystals were soaked for around 5 h at 20 °C. Apo or peptide- s oak ed crystals were harvested, briefly transferred to cryprotectant (either paratone- N or a buffer containing ethylene glycol (40%), PEG 8000 […], 100 mM sodium cacodylate, 100 m M Ca(OAc)2) and f lash frozen in liquid nitrogen.
X-Ray data we r e collected at the Diamond Light Source, Oxford, UK on beamline I04.
Crystals belonged to the space group P2 1 and diffracted to between 1.6 and 2.9 Å. Dat a we r e integrated and merged using MOSFLM[4a,b] and AI MLESS.[4c] The structures were solved by molecular replacement using PHASER, [5] with either 2CE9 or our refined apo structure as the molecular replacement model with ligands and water removed. T he structures were manually rebuilt in COOT [6] and refined with BUSTER[7] in iterative cycles.
Ligand restraints f or the constrained peptide were generated with Grade[8] and Mogul.[9] T he quality of the structures was assessed with MOLPROBITY.[10]
Linear, unmodified peptides FW RPW and MWRPW were purchased from Cambridge Peptides as lyophilized powder. The peptides were then reconstituted in 1:1 mixture of DMSO and H2O as 10 mM stocks and stored at -80 °C. […]

Test [3] has the same target. Put plainly: Isothermal titration calorimetry (ITC), peptide–TLE1 binding. The settings on record: for Kd / affinity relative to unconstrained (acyclic) peptide: cyclic vs acyclic FWRPW.
Text: as §1
This was initially more pronounced for FWRPW and 18, but also recognisable for the MWRPW peptide (see Figure S1 in the Supporting Information). We repeated the MWRPW titration at slightly higher protein and peptide concentrations to achieve a higher enthalpy signal, and therefore, better resolution of the titration event. Under these conditions, we also observed a clear biphasic curve (Figure 3). The biphasic curves are indicative of two binding events and we calculated the thermodynamic data for both (Table 2).
Figure 3 Top: ITC measurements of peptide–TLE1 binding interactions. Data fitting to a two‐site independent binding model are shown; integrated heats are shown in the inset. Bottom: Histograms showing ΔG, ΔH, and −TΔS. The thermodynamic values are also presented in Table 1. a) MWRPW–TLE1 binding, n=1. Experiment performed with TLE1 (40 μM) and MWRPW peptide (420 μM). b) FWRPW–TLE1 binding, n=2. Experiment performed with TLE1 (30 μM), FWRPW peptide (240 μM), and then repeated with TLE1 (24 μM), FWRPW peptide (180 μM). Histograms represent averaged values; error bars denote SD. c) 18–TLE1 binding, n=2. Experiment performed with TLE1 (30 μM), 18 (200 μM) and then repeated with TLE1 (30 μM), 18 (180 μM). Histograms represent averaged values; error bars denote SD. […]
as §2, §3, §4, §5, §6, §7, §8, §9, §10
1-2 days at 20 ◦C. Some crystals were transf erred to hanging drop (vapour diffusion) plates with the wells containing precipitant solution (PEG 8000 (22%), 100mM Na cacodylate, 100 mM Ca(OAc)2) and the drops containing the same precipitant solution supplemented with 1.0 or 2.5 mM peptide and a resultant final DMSO concentration of 1.0% or 2.5%, respectively. These crystals were soaked for around 5 h at 20 °C. Apo or peptide- s oak ed crystals were harvested, briefly transferred to cryprotectant (either paratone- N or a buffer […]

The mark [4] stands for this setting: first binding event, two-site independent binding model, 25 °C, pH7.5, MWRPW n=1, FWRPW and 18 n=2, mean ± SD.
[5] abbreviates: second binding event, two-site independent binding model, 25 °C, pH7.5, MWRPW n=1, FWRPW and 18 n=2, mean ± SD.

Read-outs that look alike come from different tables or passages of the source. No end group written: not given here.

T1 sequence (Q04724 443-770): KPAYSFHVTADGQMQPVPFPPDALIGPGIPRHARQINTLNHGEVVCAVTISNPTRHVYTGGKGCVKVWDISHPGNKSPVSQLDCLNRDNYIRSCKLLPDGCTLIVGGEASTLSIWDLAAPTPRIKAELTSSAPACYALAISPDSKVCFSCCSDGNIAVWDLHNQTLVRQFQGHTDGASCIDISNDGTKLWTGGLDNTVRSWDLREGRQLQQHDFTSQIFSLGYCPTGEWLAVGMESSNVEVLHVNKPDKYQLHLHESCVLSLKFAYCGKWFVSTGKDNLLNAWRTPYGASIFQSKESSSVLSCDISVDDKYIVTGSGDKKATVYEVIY

In the case of “SMWRPW [acyclic design template (pdb code 2CE9)]”, the Kd on TLE1 WDR domain was 1000 nM.

As usually defined, the ΔTm is the change in melting temperature against a reference sample. In turn, MWRPW [MWRPW, reference compound] displayed a Kd in test [1] of 704 ± 14 nM. Besides, the values for the ΔTm in test [2] (peptide 100 μM) and in test [2] (peptide 200 μM) were 6.3 °C and 6.9 °C, respectively.

In test [3] (first binding event, two-site independent binding model, 25 °C, 50 mM Hepes pH7.5, 250 mM NaCl, 1 mM TCEP, 0.05% Tween 20, MWRPW n=1 (TLE1 40 μM, peptide 420 μM), FWRPW n=2 (TLE1 30/24 μM, peptide 240/180 μM), 18 n=2 (TLE1 30 μM, peptide 200/180 μM)), “FWRPW [linear, unmodified peptide purchased from Cambridge Peptides; acyclic counterpart of 18]” gave an N1 of 0.18±0.002. Besides, in test [3] (setting [4]), the ΔH1 is -20.5 ± 3.7 kcal/mol and the “−TΔS1” value was determined as 9.2 ± 3.8 kcal/mol. Also, the “fold more potent binding than MWRPW” value in test [3] (second binding event (Kd2)) is on record as around 10 fold. In addition, in test [3] (second binding event, two-site independent binding model, 25 °C, 50 mM Hepes pH7.5, 250 mM NaCl, 1 mM TCEP, 0.05% Tween 20, MWRPW n=1, FWRPW and 18 n=2), the N2 is given as 0.7±0.004. Also, in test [3] (setting [5]), the ΔH2 was -14.6 ± 0 kcal/mol and the “−TΔS2” value worked out at 4.6 ± 0.2 kcal/mol. In addition, the ΔTm in test [2] (peptide 100 μM) came out at 9.4 °C. Further, the ΔTm in test [2] (peptide 200 μM) amounted to 10.1 °C.

`N=C(N)NCCC[C@@H]1NC(=O)[C@@H](NC(=O)[C@@H](N)Cc2ccccc2)Cc2cn(c3ccccc23)CCCC[C@@]2(C(=O)N[C@@H](Cc3c[nH]c4ccccc34)C(=O)O)CCCN2C1=O` [compound 18]: the “Kd / affinity relative to unconstrained (acyclic) peptide” value in test [3] is on record as “approximately six‐fold lower affinity than that of the acyclic peptide”; in test [3] (listed as cycFWRPW) it was “approximately five‐fold higher”. Besides, the Kd in test [3] (second binding event, two-site independent binding model, 25 °C, 50 mM Hepes pH7.5, 250 mM NaCl, 1 mM TCEP, 0.05% Tween 20, MWRPW n=1 (TLE1 40 μM, peptide 420 μM), FWRPW n=2 (TLE1 30/24 μM, peptide 240/180 μM), 18 n=2 (TLE1 30 μM, peptide 200/180 μM), read-out: Kd2) came out at 522 ± 39.6 nM. Also, the ΔTm in test [2] (peptide 100 μM) stood at 8.4 °C; in test [2] (peptide 200 μM) it was 7.5 °C.
